Here are results for seven substances from patent publication US20080025997A1, “Cysteine-rich region of respiratory syncytial virus and methods of use therefor” (priority 2004, published 2008).

The subject of one experiment is TLR4. The experiment in a line: Endotoxin (LPS)-mediated cytokine production by human monocytes. The note with it: for effect on LPS-induced cytokine production (IL-6, IL-1β): added to LPS-treated monocytes.
Experiment [1] deals with purified human monocytes. Nature of the experiment: F protein-mediated cytokine production by purified human monocytes. The note with it: for effect on F-induced IL-6 production: added to F-treated monocytes.
Description: (§1) Human PBMC were isolated from leukopaks using Histopaque (Sigma, St. Louis, Mo.). Monocytes were isolated using the Monocyte Isolation Kit II (positive selection for CD3, CD7, CD16, CD19, CD56, CD123, and glycophorin A, MiltenyiBiotec) with Macs LS separation columns. Remaining cells were >90% monocytes by anti-CD14 staining and forward- and side-light scatter analysis using FACScan (Becton-Dickinson, Elmhust, Ill.).
(§2) Purified monocytes were stimulated with LPS (1 μg) or purified proteins F or Glycoprotein (3 μg; kindly provided by V. Randolph, Wyeth Lederle, N.Y.). All rRSV variants were grown in Hep-2 cells and Vero cells as described^29,30, and used at 10^5 pfu multiplicity of infection (MOI)=1] for stimulations. Lysate of Hep-2 cells and Vero cells were used as control stimuli. UV-inactivation was performed as described elsewhere19^5 and lack of virus replication confirmed in cell culture. […] An additional peptide encoding the conserved 13 amino acid region upstream of the GCRR (164-176)^3 was also used in add-back experiments. […] The GCRR and control peptides included biotin-SGSG at the amino termini. The anti-CX3CR1 antibody was kindly provided by P. Murphy, NIAID, NIH and used as described^18. For supplemental experiments, we used peptidoglycan (PGN; Fluka, Sigma) at 10 μg and CpGDNA (GTCGTT; HyCult Biotechnology) at 1 mM. Cytokines were measured in supernatant fluids 18 hours after stimulation by immunoassay following manufacturer's instructions (Biosource Europe S. A, Belgium).
Experiment [2] has as its system purified human monocytes. The experiment in a line: Monocyte cytokine production upon exposure to RSV and recombinant RSV viruses.
Description: as §1
(§3) Purified monocytes were stimulated with LPS (1 μg) or purified proteins F or Glycoprotein (3 μg; kindly provided by V. Randolph, Wyeth Lederle, N.Y.). All rRSV variants were grown in Hep-2 cells and Vero cells as described^29,30, and used at 10^5 pfu multiplicity of infection (MOI)=1] for stimulations. Lysate of Hep-2 cells and Vero cells were used as control stimuli. UV-inactivation was performed as described elsewhere19^5 and lack of virus replication confirmed in cell culture. […] An additional peptide encoding the conserved 13 amino acid region upstream of the GCRR (164-176)^3 was also used in add-back experiments. […] The GCRR and control peptides included biotin-SGSG at the amino termini. The anti-CX3CR1 antibody was kindly provided by P. Murphy, NIAID, NIH and used as described^18. […] Cytokines were measured in supernatant fluids 18 hours after stimulation by immunoassay following manufacturer's instructions (Biosource Europe S. A, Belgium).
A further experiment deals with TLR9. The experiment in a line: CpGDNA-stimulated cytokine production by human monocytes. The settings on record: co-incubation.
The next experiment deals with RSV. The settings on record: Glycoprotein added to F protein during immunization; cited from earlier work.
In a further experiment the test system is TLR2. The experiment in a line: PGN-stimulated cytokine production by human monocytes. The note with it: co-incubation.
Experiment [3] has as its system murine alveolar macrophages. Nature of the experiment: Cytokine production by murine alveolar macrophages incubated with purified proteins and recombinant viruses. The experiment is classed as cell-based. The note with it: macrophages from naive mice. The procedure:
Alveolar macrophages were obtained by bronchoalveolar lavage (BAL) followed by magentic bead depletion (Militenyi Biotec, Germany). Macrophages were incubated with brefeldin A for six hours, fixed with commercially available fixation and permeabilization reagents, CYTOFIX/CYTOPERM (Becton Dickinson, Elmhust, Ill.), and stained using phycoerythrin (PE)-conjugated anti-IL-6 antibody (Becton Dickinson). Data was analyzed using side and forward scatter plots and FACScan (Becton Dickinson).

The test system of a further experiment is NF-κB. Nature of the experiment: NF-κB nuclear translocation immunoassay in human monocytes. It is filed as cell-based. The note with it: 60 min; purified protein or live virus stimulation. The procedure: Human monocytes were stimulated with purified RSV F and/or Glycoprotein (1 μg each) or indicated viruses for 60 minutes. After stimulation nuclear extracts were obtained using a hypotonic lysis buffer (10 mM HEPES (pH 7.9), 1.5 mM MgCl2, 10 mM KCl, 0.5 mM DTT, 0.1% Triton X-100 and protease inhibitors) and an extraction buffer (20 mM HEPES (pH 7.9), 1.5 mM MgCl2, 0.42 M NaCl, 0.5 mM DTT, 0.2 mM EDTA, 1.0% Igepal CA-630, 25% (v/v) glycerol and protease inhibitors). NF-κB subunits p50 and p65 were detected by a modified immunoassay using a double stranded biotinylated oligonucleotide containing the consensus sequence for NF-κB binding (5′-GGGACTTTCC-3′) [SEQ ID NO:______] (Chemicon International, Germany).

Description for TLR2: as §1, §3
Description for TLR4: as §1, §2
Description for TLR9: as §1, §3

As for “HFEVFNFVPSSISSNNPTSWAISKRI [GSRR, reference compound]”, the “effect on LPS-induced cytokine production (IL-6, IL-1β)” value (shortened to “effect … (IL-6, IL-1β)”) in the experiment on TLR4 was “no effect”.

Consider “GlycoproteinA peptide (residues 273-288): control peptide within the Glycoprotein mucin-like domain [reference compound]”, for which the “effect on F-induced IL-6 production” value with purified human monocytes [1] is recorded as “inhibitory effect was not observed”.

Regarding “bovine serum albumin [reference compound]”, in the experiment on purified human monocytes [1], the “effect on F-induced IL-6 production” value is “no effect”.

“HFEVFNFVPCSICSNNPTCWAICKRI [GCRR peptide]”: the “effect on F-induced IL-6 production” value with purified human monocytes [1] is listed as “dose-dependent inhibition”. Further, in the experiment on TLR4, the “effect on IL-10 production of monocytes incubated with LPS” value is “affected production of IL-10” and the “effect … (IL-6, IL-1β)” value is “dose-dependent inhibition of cytokine production”.

On to “YFARGPGIHIRKR [HIV V3 loop control peptide, reference compound]”, for which the “effect on F-induced IL-6 production” value with purified human monocytes [1] is “inhibitory effect was not observed”. For the same substance, the “effect … (IL-6, IL-1β)” value with TLR4 is “no effect”.

Regarding “G^164-176: Glycoprotein peptide encompassing amino acids 164-176, conserved 13 amino acid segment upstream of the GCRR”, in the experiment on purified human monocytes [2] (peptide added with ΔG), the “modulation of IL-6 production by ΔG” value is recorded as “failed to modulate IL-6 production”.

As to “Glycoprotein: purified RSV attachment Glycoprotein from subgroup A (A2 strain)”, the “cytokine production elicited by TLR9 agonist CpGDNA” value in the experiment on TLR9 is “inhibited”. Further, the “decrease in production of interferon-γ upon RSV challenge vs immunization with F alone” value with RSV is reported as “up to 70 fold”. The “cytokine production elicited by TLR2 agonist PGN” value in the experiment on TLR2 is given as “inhibited”. Also, the “decrease in IL-6 production compared to monocytes incubated with F alone” value with purified human monocytes [1] (F + Glycoprotein, P<0.01) is recorded as “approximately 1.5 log”. Moreover, the “effect on F-induced IL-1β or IL-10 in supernatant fluids” value with purified human monocytes [1] (not shown) was “inhibitory effect similar to that observed for Glycoprotein on F-induced IL-6 production”. Also, the “IL-6 production by monocytes incubated with purified protein alone” value with purified human monocytes [1] (supernatant fluids, 18 hours, immunoassay) was “low”. For the same substance, in the experiment on purified human monocytes [2] (added to mG-infected monocytes), the “IL-6 response of mG-infected cells after add-back to culture media” value was “restored to levels similar to those elicited by RSV”. Further, in experiment [3], the “cytokine production in murine alveolar macrophages” value is “modulating the innate responses elicited by both purified F and RSV”. For the same substance, the NF-κB nuclear translocation result in the experiment on NF-κB is recorded as “decreased”.
